Like-named read-outs stand apart in the source and are kept apart here.
Tests used:
[1] = biological target: T1, NPP1 (Homo sapiens, UniProt P22413); conditions: literature value; cited from earlier work
T1 sequence (P22413 1-925): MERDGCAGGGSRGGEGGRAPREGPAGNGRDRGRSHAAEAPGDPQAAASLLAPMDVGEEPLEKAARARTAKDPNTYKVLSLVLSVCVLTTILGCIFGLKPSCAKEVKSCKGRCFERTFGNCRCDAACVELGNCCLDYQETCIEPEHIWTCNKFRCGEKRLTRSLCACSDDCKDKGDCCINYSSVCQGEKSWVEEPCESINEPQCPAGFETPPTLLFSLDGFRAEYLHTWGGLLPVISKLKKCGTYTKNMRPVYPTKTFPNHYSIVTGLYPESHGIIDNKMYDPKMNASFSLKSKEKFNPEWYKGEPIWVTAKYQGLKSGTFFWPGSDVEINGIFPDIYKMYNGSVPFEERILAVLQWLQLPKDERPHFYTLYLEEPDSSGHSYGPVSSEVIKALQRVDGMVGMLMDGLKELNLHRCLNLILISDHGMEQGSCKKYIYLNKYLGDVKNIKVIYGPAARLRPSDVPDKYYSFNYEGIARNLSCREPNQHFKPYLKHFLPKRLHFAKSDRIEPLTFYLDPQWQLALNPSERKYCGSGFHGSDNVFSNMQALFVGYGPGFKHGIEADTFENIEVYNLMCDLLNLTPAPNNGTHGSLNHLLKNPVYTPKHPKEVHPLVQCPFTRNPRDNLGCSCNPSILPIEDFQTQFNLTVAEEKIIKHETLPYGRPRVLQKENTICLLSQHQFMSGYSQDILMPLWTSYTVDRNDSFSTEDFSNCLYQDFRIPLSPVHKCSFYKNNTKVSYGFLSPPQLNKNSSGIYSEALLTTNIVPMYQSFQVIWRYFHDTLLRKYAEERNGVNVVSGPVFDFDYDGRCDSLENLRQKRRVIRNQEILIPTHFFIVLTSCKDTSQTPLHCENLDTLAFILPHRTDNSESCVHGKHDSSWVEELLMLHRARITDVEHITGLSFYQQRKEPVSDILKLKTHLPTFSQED

[2] = biological target: T2, Human CD73 (Homo sapiens, UniProt P21589); conditions: literature value; cited from earlier work
T2 sequence (P21589 27-549): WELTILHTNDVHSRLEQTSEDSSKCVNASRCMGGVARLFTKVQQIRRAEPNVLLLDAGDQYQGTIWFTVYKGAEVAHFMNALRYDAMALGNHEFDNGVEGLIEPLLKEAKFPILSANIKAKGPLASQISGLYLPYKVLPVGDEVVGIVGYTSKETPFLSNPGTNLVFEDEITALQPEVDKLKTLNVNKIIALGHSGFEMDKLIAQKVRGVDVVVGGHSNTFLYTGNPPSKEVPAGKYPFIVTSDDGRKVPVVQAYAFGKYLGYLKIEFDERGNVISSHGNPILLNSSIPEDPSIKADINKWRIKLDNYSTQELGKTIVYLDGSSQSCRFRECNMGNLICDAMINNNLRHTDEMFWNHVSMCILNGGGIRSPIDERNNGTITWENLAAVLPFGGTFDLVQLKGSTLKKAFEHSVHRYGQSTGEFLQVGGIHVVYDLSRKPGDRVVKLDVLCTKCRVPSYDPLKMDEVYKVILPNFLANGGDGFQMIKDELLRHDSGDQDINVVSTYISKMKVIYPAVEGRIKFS

[3] = biological target: T3, Human CD39 (NTPDase1) (Homo sapiens, UniProt P49961); test: Inhibition of human CD39 (NTPDase1), 100 μM ADP as substrate; type: biochemical; conditions: 100 μM ADP as a substrate
T3 sequence (P49961 1-510): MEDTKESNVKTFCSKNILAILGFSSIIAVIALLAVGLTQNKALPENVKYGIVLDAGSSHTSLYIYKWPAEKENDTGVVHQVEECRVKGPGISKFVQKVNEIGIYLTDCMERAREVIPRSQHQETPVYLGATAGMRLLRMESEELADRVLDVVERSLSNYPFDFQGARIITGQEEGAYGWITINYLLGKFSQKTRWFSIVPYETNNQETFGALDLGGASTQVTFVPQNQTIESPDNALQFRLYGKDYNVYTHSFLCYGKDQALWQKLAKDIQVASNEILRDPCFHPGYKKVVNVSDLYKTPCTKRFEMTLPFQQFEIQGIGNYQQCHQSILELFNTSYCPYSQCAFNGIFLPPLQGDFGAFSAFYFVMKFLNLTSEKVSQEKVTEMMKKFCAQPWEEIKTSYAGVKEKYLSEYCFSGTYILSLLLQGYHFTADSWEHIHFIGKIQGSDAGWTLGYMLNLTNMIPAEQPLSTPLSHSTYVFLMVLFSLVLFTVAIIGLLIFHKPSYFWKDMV

[4] = biological target: T4, human NPP3 (Homo sapiens, UniProt O14638); test: Inhibition of human NPP3, 100 μM p-Nph-5′-TMP as substrate (Tables 5, 7); type: biochemical; conditions: 100 μM p-Nph-5′-TMP as a substrate
T4 sequence (O14638 1-875): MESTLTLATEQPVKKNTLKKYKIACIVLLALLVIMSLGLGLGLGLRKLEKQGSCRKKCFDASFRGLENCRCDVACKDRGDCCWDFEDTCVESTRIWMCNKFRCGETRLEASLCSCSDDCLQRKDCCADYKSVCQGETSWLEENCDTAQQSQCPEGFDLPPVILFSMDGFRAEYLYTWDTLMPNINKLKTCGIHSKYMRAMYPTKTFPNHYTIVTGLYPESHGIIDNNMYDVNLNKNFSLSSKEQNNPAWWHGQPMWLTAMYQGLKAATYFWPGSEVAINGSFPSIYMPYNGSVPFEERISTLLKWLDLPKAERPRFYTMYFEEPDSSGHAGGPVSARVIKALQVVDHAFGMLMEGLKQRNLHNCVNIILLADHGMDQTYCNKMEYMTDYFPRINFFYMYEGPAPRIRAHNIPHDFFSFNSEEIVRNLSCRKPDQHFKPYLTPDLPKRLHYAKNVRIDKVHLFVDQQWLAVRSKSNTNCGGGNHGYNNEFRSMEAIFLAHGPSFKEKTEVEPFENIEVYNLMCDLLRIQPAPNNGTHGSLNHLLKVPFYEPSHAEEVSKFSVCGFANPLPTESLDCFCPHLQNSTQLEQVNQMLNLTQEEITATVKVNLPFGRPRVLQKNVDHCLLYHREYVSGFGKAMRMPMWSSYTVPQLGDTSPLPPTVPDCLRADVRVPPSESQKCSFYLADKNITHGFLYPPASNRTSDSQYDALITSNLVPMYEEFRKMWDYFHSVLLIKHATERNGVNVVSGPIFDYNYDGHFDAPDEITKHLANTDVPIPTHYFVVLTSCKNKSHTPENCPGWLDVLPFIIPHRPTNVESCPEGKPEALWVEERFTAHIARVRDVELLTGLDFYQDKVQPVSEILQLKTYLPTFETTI

[5] = biological target: T3, Human CD39 (NTPDase1); conditions: literature value; cited from earlier work
[6] = system: primary human chondrocytes; test: Cell viability of primary human chondrocytes, XTT assay; type: cell-based; conditions: cultured primary human chondrocytes, 0.1 mM
Experimental: FIG. 11: Analogs 20-28 are not toxic to primary human chondrocytes. Chondrocytes were incubated with analogs 20-28 at the indicated concentrations for 24 h, and then cell viability was assessed by the XTT assay;
FIG. 15: The effects of analogs 106-109 on primary human chondrocytes. (A) Analogs 106-109 inhibit NPPase activity in primary chondrocytes. NPPase activity was assayed by measuring the hydrolysis of the chromogenic substrate, pnp-TMP. […] Alkaline phosphatase activity was assayed by hydrolysis of p-nitrophenyl phosphate. (C) Analogs 106-109 are not toxic to cultured chondrocytes at a concentration of 0.1 mM. Cell viability was assessed by the XTT assay. Mean (columns) and SD (error bars) of triplicate cell culture experiments are shown.
A prerequisite for the application of inhibitors 20-28 as therapeutic agents is the lack of toxicity. For this purpose, primary human chondrocytes were cultured with analogs 20-28 at a high concentration of 1 mM for 24 h. Thereafter, cell viability was measured relative to untreated controls by the XTT assay and is represented on FIG. 11. No significant decrease in cell's viability was discernible at concentrations of up to 1 mM.

[7] = biological target: P2Y6R (Homo sapiens, UniProt Q15077); test: Calcium mobilization in 1321N1 astrocytoma cells expressing human P2Y6R; type: cell-based; parameters: expressed in transfected cells; host or cells: 1321N1 astrocytoma cells (stably transfected)
Experimental: (§1) Given the structural resemblance of 106-109 to the natural ligands of P2Y receptors, adenine and uracil nucleotides as natural substrates, were assessed for agonist potency on the human P2Y1, P2Y2, P2Y4, and P2Y6 receptor. To evaluate NPP1 selectivity of analogs 106-109, they were tested for their ability to activate of the uridine-nucleotide sensitive human recombinant P2Y1,2,4,6-receptors. The agonist potencies of this series of nucleotide analogues on the Gq protein-coupled human P2Y1R, P2Y2R, P2Y4R, and P2Y6R was determined by assessing its ability to induce calcium mobilization in stably transfected 1321N1 astrocytoma cells (Table 8). The nucleotide analogues were found in calcium mobilization assays to activate the P2Y2R with mid-micromolar potency.

[8] = biological target: T5, human P2Y4R (Homo sapiens, UniProt P51582); test: Calcium mobilization in 1321N1 astrocytoma cells expressing human P2Y4R; type: cell-based
T5 construct: expressed in transfected cells; host or cells: 1321N1 astrocytoma cells
Experimental: as §1

[9] = biological target: T1, NPP1; test: Inhibition of human NPP1, 100 μM ATP as substrate (FIG. 9, Table 6); type: biochemical; conditions: for inhibition at 10 µM: n = 3, read-out: % inhibition ± SEM at 10 μM, human NPP1
Experimental: Each experiment was performed in triplicates;

[10] = biological target: T1, NPP1; test: Inhibition of human NPP1, 100 μM p-Nph-5′-TMP as substrate (Tables 5, 6); conditions: for inhibition at 10 µM: read-out: % inhibition ± SEM at 10 μM, human NPP1
[11] = biological target: T6, human P2Y1R (Homo sapiens, UniProt P47900); test: Calcium mobilization in 1321N1 astrocytoma cells expressing human P2Y1R; type: cell-based
T6 construct: expressed in transfected cells; host or cells: 1321N1 astrocytoma cells
Experimental: as §1

[12] = biological target: T7, human P2Y2R (Homo sapiens, UniProt P41231); test: Calcium mobilization in 1321N1 astrocytoma cells expressing human P2Y2R; type: cell-based
T7 construct: expressed in transfected cells; host or cells: 1321N1 astrocytoma cells
Experimental: as §1

[13] = biological target: T4, human NPP3; conditions: literature value; cited from earlier work
[14] = biological target: T8, human CD39 (Homo sapiens, UniProt P49961); test: Inhibition of human CD39, 0.5 μM PSB-170621A as substrate; type: biochemical; conditions: 0.5 μM PSB-170621A as a substrate; n = 3
T8 sequence (P49961 1-510): T3 sequence (P49961 1-510)

[15] = 10 μM, inactive = no inhibition at 10 μM

T5 sequence (P51582 whole entry): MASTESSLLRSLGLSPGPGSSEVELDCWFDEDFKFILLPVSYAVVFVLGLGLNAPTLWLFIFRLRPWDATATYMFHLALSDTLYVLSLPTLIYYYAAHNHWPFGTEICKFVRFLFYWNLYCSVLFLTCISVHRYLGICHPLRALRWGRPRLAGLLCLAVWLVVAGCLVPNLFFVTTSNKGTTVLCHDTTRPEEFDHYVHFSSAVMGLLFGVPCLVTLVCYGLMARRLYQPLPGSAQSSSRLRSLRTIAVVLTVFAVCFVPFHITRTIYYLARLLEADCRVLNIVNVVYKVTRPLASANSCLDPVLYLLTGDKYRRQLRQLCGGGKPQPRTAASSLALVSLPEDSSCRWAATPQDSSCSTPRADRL
T7 sequence (P41231 whole entry): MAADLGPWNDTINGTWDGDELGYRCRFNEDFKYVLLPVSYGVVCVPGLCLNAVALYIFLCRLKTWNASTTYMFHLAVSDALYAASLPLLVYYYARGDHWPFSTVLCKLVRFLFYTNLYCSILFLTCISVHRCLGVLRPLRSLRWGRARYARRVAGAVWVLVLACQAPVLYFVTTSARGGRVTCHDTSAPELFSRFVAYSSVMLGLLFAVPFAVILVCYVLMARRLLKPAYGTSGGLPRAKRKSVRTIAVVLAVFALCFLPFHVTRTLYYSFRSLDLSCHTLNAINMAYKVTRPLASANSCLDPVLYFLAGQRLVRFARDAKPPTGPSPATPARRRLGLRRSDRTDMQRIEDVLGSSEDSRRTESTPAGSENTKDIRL
P2Y6R, sequence (Q15077 whole entry): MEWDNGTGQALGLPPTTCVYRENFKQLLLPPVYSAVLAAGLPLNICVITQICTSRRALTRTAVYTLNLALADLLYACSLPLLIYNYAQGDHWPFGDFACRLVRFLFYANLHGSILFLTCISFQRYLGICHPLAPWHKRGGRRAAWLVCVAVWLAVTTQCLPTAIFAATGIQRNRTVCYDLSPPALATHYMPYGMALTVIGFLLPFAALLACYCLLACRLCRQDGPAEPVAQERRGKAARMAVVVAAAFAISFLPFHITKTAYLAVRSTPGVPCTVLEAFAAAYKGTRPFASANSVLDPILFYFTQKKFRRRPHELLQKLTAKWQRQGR
T6 sequence (P47900 whole entry): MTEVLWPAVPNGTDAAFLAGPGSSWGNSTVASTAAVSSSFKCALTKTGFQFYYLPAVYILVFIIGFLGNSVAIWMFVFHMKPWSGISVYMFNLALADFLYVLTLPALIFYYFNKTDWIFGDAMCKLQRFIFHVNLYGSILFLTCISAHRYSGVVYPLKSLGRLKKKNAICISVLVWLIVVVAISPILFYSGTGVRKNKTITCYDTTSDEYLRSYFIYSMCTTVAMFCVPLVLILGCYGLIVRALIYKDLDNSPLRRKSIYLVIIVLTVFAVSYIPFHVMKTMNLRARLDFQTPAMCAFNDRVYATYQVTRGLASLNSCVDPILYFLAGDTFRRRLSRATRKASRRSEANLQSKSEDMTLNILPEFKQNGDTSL

Compound | cell viability (XTT), toxicity [6] | % activation at 10 μM, P2Y6 [7] [%] | % activation at 10 μM, P2Y4 [8] [%] | inhibition at 10 µM ([9]; ATP (100 μM) as a substrate) [%] | Ki [10] [nM] | inhibition at 10 µM [10] [%] | % activation at 10 μM, P2Y1 [11] [%] | % activation at 10 μM, P2Y2 [12] [%] | other results
Nc1ncnc2c1ncn2[C@@H]1O[C@H](COP(=O)(O)CP(=O)(O)O)[C@@H](O)[C@H]1O [AOPCP, reference compound] |  |  |  |  |  |  |  |  | Ki [1]: 1.28 to 16.5 µM; Ki [2]: 0.197 µM; % inhibition ± SD at 10 μM, Human CD39 (NTPDase1) [3, 15]: 12 ± 5%; Ki ([3]; read-out: Ki ± SD (μM), Human CD39 (NTPDase1)): > 10 µM; % inhibition ± SD at 10 μM, Human NPP3 [4, 15]: inactived
Cc1ccc(C(=O)Nc2ccc(S(=O)(=O)O)c3cc(S(=O)(=O)O)cc(S(=O)(=O)O)c23)cc1NC(=O)c1cccc(NC(=O)Nc2cccc(C(=O)Nc3cc(C(=O)Nc4ccc(S(=O)(=O)O)c5cc(S(=O)(=O)O)cc(S(=O)(=O)O)c45)ccc3C)c2)c1 [Suramin] |  |  |  |  |  |  |  |  | Ki [5]: 300 µM
Nc1ncnc2c1ncn2COCCOP(=S)(S)OP(=O)(O)O (stereo not drawn) [Analogue 106] | slightly increase cell survival |  |  |  |  |  |  |  | 
Nc1ncnc2c1ncn2COCCOP(=S)(S)OP(=O)(O)C(Cl)(Cl)P(=O)(O)O (stereo not drawn) [compound 109] |  | 2 ± 4 | 0 ± 2 | 37 ± 1 | 698 | 85 ± 2 | −2 ± 1 | 21 ± 5 | 
Nc1c(S(=O)(=O)O)cc(Nc2ccc(Nc3nc(Cl)nc(Nc4cccc(S(=O)(=O)O)c4)n3)c(S(=O)(=O)O)c2)c2c1C(=O)c1ccccc1C2=O [Reactive Blue 2] |  |  |  |  |  |  |  |  | Ki [1]: 0.52 µM; Ki [13]: 0.71 µM; Ki [5]: 20 µM; Ki [2]: 3.07 µM
Nc1ncnc2c1ncn2COCCOP(=S)(S)OP(=O)(O)CP(=O)(O)O (stereo not drawn) [compound 108] |  | −8 ± 2 | −2 ± 1 | 16 ± 3 | 2160 | 65 ± 1 | 0 ± 1 | 44 ± 9 | 
Nc1ncnc2c1ncn2COCCOP(=S)(S)OP(=O)(O)OP(=O)(O)O (stereo not drawn) [Analogue 107] | slightly increase cell survival |  |  |  |  |  |  |  | inhibition type (Lineweaver-Burk plot) ([9]; vs ATP, α value of ~1): non-competitive inhibition; inhibition type (Lineweaver-Burk plot) ([10]; vs p-Nph-5′-TMP, […]): non-competitive inhibition
Nc1ncnc2c1ncn2COCCOP(=S)(S)OP(=O)(O)C(Cl)(Cl)P(=O)(O)O (stereo not drawn) [Analogue 109] | slightly increase cell survival |  |  |  |  |  |  |  | 
Nc1ncnc2c1ncn2COCCOP(=S)(S)OP(=O)(O)OP(=O)(O)O (stereo not drawn) [compound 107] |  | −5 ± 3 | −2 ± 2 | 66 ± 1 | 1980 | 74 ± 1 | −1 ± 1 | 39 ± 13 | Ki ([9]; ATP (100 μM) as a substrate, read-out: Ki (μM ± SD), human NPP1 (converted)): 0.334 µM; % inhibition ± SEM, human CD39 [14]: 28 ± 1%; % inhibition ± SEM, human NPP3 ([4]; n = 3): 17 ± 1%
